For one test, the target named is p70S6K (Homo sapiens, UniProt P23443). Put plainly: Luciferase-coupled chemiluminescence kinase assay (ATP consumption). It is filed as biochemical. The procedure, abridged:
(§1)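 Activity is read as ATP depletion: luciferase-luciferin reagent added after a 3 h ambient-temperature kinase reaction, with total ATP use limited to 25-60%. Before ATP addition, 2.5-5 nM kinase and compound were preincubated 30 min in Tris pH 7.5/MgCl2/TX-100/DTT buffer; […].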

In a further test the target is AktK (Homo sapiens, UniProt P31749). The description is as above. It is filed as biochemical. The following applies: read-out: AKT-1 IC50. In outline:
as §1

Where two headings read alike, the source gives them in different places.

Chain of AktK (P31749 whole entry): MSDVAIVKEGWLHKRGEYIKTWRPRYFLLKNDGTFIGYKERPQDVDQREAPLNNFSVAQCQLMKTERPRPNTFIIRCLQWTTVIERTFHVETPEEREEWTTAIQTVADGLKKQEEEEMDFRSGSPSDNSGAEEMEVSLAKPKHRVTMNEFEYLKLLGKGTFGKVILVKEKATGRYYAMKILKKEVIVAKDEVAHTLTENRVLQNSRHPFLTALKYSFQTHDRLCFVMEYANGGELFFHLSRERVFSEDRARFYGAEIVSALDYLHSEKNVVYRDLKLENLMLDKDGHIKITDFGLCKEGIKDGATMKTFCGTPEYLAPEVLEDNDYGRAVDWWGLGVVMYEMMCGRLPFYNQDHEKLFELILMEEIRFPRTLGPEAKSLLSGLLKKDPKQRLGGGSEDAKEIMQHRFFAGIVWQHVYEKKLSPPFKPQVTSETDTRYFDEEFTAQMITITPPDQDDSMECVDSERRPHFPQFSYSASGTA
Chain of p70S6K (P23443 whole entry): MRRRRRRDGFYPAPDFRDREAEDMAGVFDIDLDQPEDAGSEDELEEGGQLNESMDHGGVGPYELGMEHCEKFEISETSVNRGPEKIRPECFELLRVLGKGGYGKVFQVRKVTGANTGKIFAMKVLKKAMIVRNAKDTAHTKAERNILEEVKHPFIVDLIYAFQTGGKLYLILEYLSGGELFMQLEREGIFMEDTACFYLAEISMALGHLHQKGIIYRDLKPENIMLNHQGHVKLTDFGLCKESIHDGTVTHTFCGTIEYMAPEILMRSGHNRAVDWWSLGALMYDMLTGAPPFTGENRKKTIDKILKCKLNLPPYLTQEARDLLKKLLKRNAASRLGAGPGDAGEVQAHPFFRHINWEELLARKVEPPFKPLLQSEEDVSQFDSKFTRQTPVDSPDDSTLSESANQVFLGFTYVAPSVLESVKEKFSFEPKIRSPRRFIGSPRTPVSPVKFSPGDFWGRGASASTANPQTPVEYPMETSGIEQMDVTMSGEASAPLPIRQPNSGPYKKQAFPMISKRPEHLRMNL

Regarding `Cc1c(NCCN2CCCC2)cc(OCC2CCCO2)cc1N1CCN(c2ncnc3[nH]nc(Br)c23)CC1` (centres unmarked) [Entry 222, 3-[4-(3-bromo-1H-pyrazolo[3,4-d]pyrimidin-4-yl)piperazin-1-yl]-2-methyl-N-(2-pyrrolidin-1-ylethyl)-5-[(tetrahydrofuran-2-ylmethyl)oxy]aniline], the IC50 on p70S6K (Table 1, class symbols per key) is under 100 nM; on AktK (Table 1, class symbols per key) it was under 100 nM.
As to `CC(=O)c1ccc(N2CCN(c3ncnc4[nH]nc(Br)c34)CC2)cc1` [Entry 94, 1-{4-[4-(3-bromo-1H-pyrazolo[3,4-d]pyrimidin-4-yl)piperazin-1-yl]phenyl}ethanone], the IC50 on p70S6K (Table 1, class symbols per key) fell in the range of 100 to 1000 nM; at AktK (Table 1, class symbols per key), 1000 to 10000 nM.
For `CCc1n[nH]c2ncnc(N3CCN(c4cc(Cl)cc(OCC5CCN(C)CC5)c4C)CC3)c12` [Entry 31, 4-[4-(5-chloro-2-methyl-3-{[(1-methylpiperidin-4-yl)methyl]oxy}phenyl)piperazin-1-yl]-3-ethyl-1H-pyrazolo[3,4-d]pyrimidine] the same measures were under 100 nM and 100 to 1000 nM.
Consider `Cc1ccc(Cl)cc1N1CCN(c2ncnc3[nH]nc(C#CCN4CCN(C)CC4)c23)CC1` [Entry 398, 4-[4-(5-chloro-2-methylphenyl)piperazin-1-yl]-3-[3-(4-methylpiperazin-1-yl)prop-1-yn-1-yl]-1H-pyrazolo[3,4-d]pyrimidine], for which the results for the IC50 on p70S6K and at AktK were 100 to 1000 nM and 1000 to 10000 nM, respectively.
In the case of `CCc1n[nH]c2ncnc(N3CCN(c4cccc(OCCN(CC)CC)c4C)CC3)c12` [Entry 32, N,N-diethyl-2-({3-[4-(3-ethyl-1H-pyrazolo[3,4-d]pyrimidin-4-yl)piperazin-1-yl]-2-methylphenyl}oxy)ethanamine], the half-inhibitory concentration (IC50) lay in the range of 100 to 1000 nM on p70S6K (Table 1, class symbols per key) and 1000 to 10000 nM at AktK (Table 1, class symbols per key).
For `Cc1c(NCCN2CCCC2)cc(C(=O)N(C)C(C)C)cc1N1CCN(c2ncnc3[nH]nc(Br)c23)CC1` [Entry 210, 3-[4-(3-bromo-1H-pyrazolo[3,4-d]pyrimidin-4-yl)piperazin-1-yl]-N,4-dimethyl-N-(1-methylethyl)-5-[(2-pyrrolidin-1-ylethyl)amino]benzamide] the same measures were under 100 nM and 100 to 1000 nM.
In the case of `Cc1ccc(Cl)cc1N1CCN(c2ncnc3[nH]nc(-c4cccc(C(=O)O)c4)c23)CC1` [Entry 340, 3-{4-[4-(5-chloro-2-methylphenyl)piperazin-1-yl]-d1H-pyrazolo[3,4-]pyrimidin-3-yl}benzoic acid], the IC50 against p70S6K and on AktK was 1000 to 10000 nM each time.
Regarding `CCc1n[nH]c2ncnc(N3CCN(c4nccc5ccccc45)CC3)c12` [Entry 102, 1-[4-(3-ethyl-1H-pyrazolo[3,4-d]pyrimidin-4-yl)piperazin-1-yl]isoquinoline], the IC50 against p70S6K (Table 1, class symbols per key) is under 100 nM; on AktK (Table 1, class symbols per key), at least 10000 nM.
Turning to `COc1ccc(N2CCN(c3ncnc4[nH]cnc34)CC2)cc1` [Entry 306, 6-{4-[4-(methyloxy)phenyl]piperazin-1-yl}-9H-purine], the figures for the IC50 on p70S6K and at AktK were 1000 to 10000 nM and at least 10000 nM, respectively.
For `Cc1ccc(Cl)cc1N1CCN(c2ncnc3[nH]nc(-c4ccc(OCCCN(C)C)cc4)c23)CC1` [Entry 380, 3-[(4-{4-[4-(5-chloro-2-methylphenyl)piperazin-1-yl]-1H-pyrazolo[3,4-d]pyrimidin-3-yl}phenyl)oxy]-N,N-dimethylpropan-1-amine] the same measures were 1000 to 10000 nM and 1000 to 10000 nM.
For `Cc1ccc(-c2n[nH]c3ncnc(N4CCN(c5cc(Cl)ccc5C)CC4)c23)cc1` [Entry 341, 4-[4-(5-chloro-2-methylphenyl)piperazin-1-yl]-3-(4-methylphenyl)-1H-pyrazolo[3,4-d]pyrimidine] the same measures were 1000 to 10000 nM and 1000 to 10000 nM.
Take `CCc1n[nH]c2ncnc(N3CCN(c4cc(Cl)cc(NCCN(C)CC)c4C)CC3)c12` [Entry 147, N′-{5-chloro-3-[4-(3-ethyl-1H-pyrazolo[3,4-d]pyrimidin-4-yl)piperazin-1-yl]-2-methylphenyl}-N-ethyl-N-methylethane-1,2-diamine]: the IC50 on p70S6K (Table 1, class symbols per key) was under 100 nM; on AktK (Table 1, class symbols per key) it was 100 to 1000 nM.
For `Cc1c(NCCN2CCCC2)cc(Br)cc1N1CCN(c2ncnc3[nH]nc(Br)c23)CC1` [Entry 271, 5-bromo-3-[4-(3-bromo-1H-pyrazolo[3,4-d]pyrimidin-4-yl)piperazin-1-yl]-2-methyl-N-(2-pyrrolidin-1-ylethyl)aniline] the same measures were under 100 nM and under 100 nM.
For `Cc1c(OCCN2CCCCC2)cc(Cl)cc1N1CCN(c2ncnc3[nH]nc(Br)c23)CC1` [Entry 20, 3-bromo-4-(4-{5-chloro-2-methyl-3-[(2-piperidin-1-ylethyl)oxy]phenyl}piperazin-1-yl)-1H-pyrazolo[3,4-d]pyrimidine] the same measures were under 100 nM and 100 to 1000 nM.
In the same order, the values of `CCc1n[nH]c2ncnc(N3CCN(c4cc(F)cc(NCCN5CCCC5)c4Cl)CC3)c12` [Entry 130, 2-chloro-3-[4-(3-ethyl-1H-pyrazolo[3,4-d]pyrimidin-4-yl)piperazin-1-yl]-5-fluoro-N-(2-pyrrolidin-1-ylethyl)aniline] are under 100 nM and 1000 to 10000 nM.
Regarding `Cc1c(NCCN2CCCC2)cc(OCC(F)(CF)CF)cc1N1CCN(c2ncnc3[nH]nc(C#CCO)c23)CC1` [Entry 288, 3-[4-(4-{5-{[2,3-difluoro-2-(fluoromethyl)pro-pyl]oxy}-2-methyl-3-[(2-pyrrolidin-1-ylethyl)a-mino]phenyl}piperazin-1-yl)-1H-pyrazolo[3,4-d]pyrimidin-3-yl]prop-2-yn-1-ol], the IC50 against p70S6K (Table 1, class symbols per key) is under 100 nM; at AktK (Table 1, class symbols per key) it was under 100 nM.
In the case of `CCc1n[nH]c2ncnc(N3CCN(c4cc(Cl)cc(OCCN(CC)CC)c4)CC3)c12` [Entry 170, 2-({3-chloro-5-[4-(3-ethyl-1H-pyrazolo[3,4-d]pyrimidin-4-yl)piperazin-1-yl]phenyl}oxy)-N,N-diethylethanamine], the half-inhibitory concentration (IC50) was 100 to 1000 nM at p70S6K (Table 1, class symbols per key) and at least 10000 nM on AktK (Table 1, class symbols per key).
For `Cc1c(NCCN2CCCC2)cc(Cl)cc1N1CCN(c2ncnc3[nH]nc(C4CC4)c23)CC1` [Entry 161, 5-chloro-3-[4-(3-cyclopropyl-1H-pyrazolo[3,4-d]pyrimidin-4-yl)piperazin-1-yl]-2-methyl-N-(2-pyrrolidin-1-ylethyl)aniline], the IC50 at p70S6K (Table 1, class symbols per key) is under 100 nM; at AktK (Table 1, class symbols per key), 100 to 1000 nM.
For the compound `CCc1n[nH]c2ncnc(N3CCN(c4cc(Cl)cc(C#CCN(C)C)c4C)CC3)c12` [Entry 385, 3-{5-chloro-3-[4-(3-ethyl-1H-pyrazolo[3,4-d]pyrimidin-4-yl)piperazin-1-yl]-2-methylphenyl}-N,N-dimethylprop-2-yn-1-amine], the IC50 was under 100 nM at p70S6K and 1000 to 10000 nM at AktK.
For the compound `N#Cc1nccnc1N1CCN(c2ncnc3[nH]nc(Br)c23)CC1` [Entry 110, 3-[4-(3-bromo-1H-pyrazolo[3,4-d]pyrimidin-4-yl)piperazin-1-yl]pyrazine-2-carbonitrile], the 50% inhibitory concentration (IC50) is 100 to 1000 nM on p70S6K (Table 1, class symbols per key) and at least 10000 nM at AktK (Table 1, class symbols per key).
For the compound `Cc1ccc(C(=O)Nc2ccccc2)cc1N1CCN(c2ncnc3[nH]nc(Br)c23)C[C@@H]1C` [Entry 177, 3-[(2S)-4-(3-bromo-1H-pyrazolo[3,4-d]pyrimidin-4-yl)-2-methylpiperazin-1-yl]-4-methyl-N-phenylbenzamide], the concentration for half-maximal inhibition (IC50) against p70S6K (Table 1, class symbols per key) is under 100 nM; at AktK (Table 1, class symbols per key), 100 to 1000 nM.
Regarding `CCc1n[nH]c2ncnc(N3CCN(c4cc(Cl)cc(C(=O)N5CCN(C)CC5)c4OC)CC3)c12` [Entry 375, 4-(4-{5-chloro-2-(methyloxy)-3-[(4-methylpipera-zin-1-yl)carbonyl]phenyl}piperazin-1-yl)-3-ethyl-1H-pyrazolo[3,4-d]pyrimidine], the IC50 on p70S6K is 100 to 1000 nM; at AktK it was at least 10000 nM.
Consider `CCc1n[nH]c2ncnc(N3CCN(c4cc(Cl)cc(OCCN5CCCCC5)c4C)CC3)c12` [Entry 17, 4-(4-{5-chloro-2-methyl-3-[(2-piperidin-1-ylethyl)oxy]phenyl}piperazin-1-yl)-3-ethyl-1H-pyrazolo[3,4-d]pyrimidine], for which the half-inhibitory concentration (IC50) was under 100 nM on p70S6K (Table 1, class symbols per key) and 1000 to 10000 nM on AktK (Table 1, class symbols per key).
Turning to `Cc1ccccc1N1CCN(c2ncnc3[nH]ccc23)CC1` [Entry 301, 4-[4-(2-methylphenyl)piperazin-1-yl]-7H-pyrrolo[2,3-d]pyrimidine], the IC50 at p70S6K is 100 to 1000 nM; at AktK, at least 10000 nM.
For `CCN(CC)CC#Cc1n[nH]c2ncnc(N3CCN(c4cc(Cl)ccc4C)CC3)c12` [Entry 392, 3-{4-[4-(5-chloro-2-methylphenyl)piperazin-1-yl]-1H-pyrazolo[3,4-d]pyrimidin-3-yl}-N,N-diethylprop-2-yn-1-amine] the same measures were under 100 nM and 1000 to 10000 nM.
Consider `Cc1ccc(Cl)cc1N1CCN(c2ncnc3[nH]nc(CCCO)c23)CC1` [Entry 371, 3-{4-[4-(5-chloro-2-methylphenyl)piperazin-1-yl]-1H-pyrazolo[3,4-d]pyrimidin-3-yl}propan-1-ol], for which the figures for the IC50 against p70S6K and on AktK were under 100 nM and 1000 to 10000 nM, respectively.
In the case of `Cc1c(NCCN(C)C)cc(OCC(C)C)cc1N1CCN(c2ncnc3[nH]nc(Br)c23)CC1` [Entry 195, N′-{3-[4-(3-bromo-1H-pyrazolo[3,4-d]pyrimidin-4-yl)piperazin-1-yl]-2-methyl-5-[(2-methylpropyl)ox-y]phenyl}-N,N-dimethylethane-1,2-diamine], the IC50 at p70S6K (Table 1, class symbols per key) was under 100 nM; at AktK (Table 1, class symbols per key) it was under 100 nM.
As to `Cc1c(OCCN2CCOCC2)cc(Cl)cc1N1CCN(c2ncnc3[nH]nc(C(F)(F)F)c23)CC1` [Entry 41, 4-(4-{5-chloro-2-methyl-3-[(2-morpholin-4-ylethyl)oxy]phenyl}piperazin-1-yl)-3-(trifluoromethyl)-1H-pyrazolo[3,4-d]pyrimidine], the IC50 on p70S6K (Table 1, class symbols per key) is under 100 nM; at AktK (Table 1, class symbols per key) it was 1000 to 10000 nM.

Values taken from patent publication US8076338B2, “Kinase modulators and methods of use” (Exelixis, Inc., priority 2004, dated 2011).
